Assay results as given in patent US20260232750A1, “COMPOSITION AND METHOD FOR INHIBITING ADVANCED GLYCATION END PRODUCTS” (ACCESS BUSINESS GROUP INTERNATIONAL LLC, priority 2022, published 2026).
Entries after “also recorded” stand apart in the source; their conditions may differ. Read-outs that look alike come from different tables or passages of the source.

Legend:
Format in all cases: biochemical
DPPH· scavenging assay = assay: DPPH· scavenging assay
COX-2 = molecular target: T1, COX-2 (Homo sapiens, UniProt P35354); assay: Anti-COX-2 assay (COX-2 Inhibitor Screening Kit)
T1 construct: purchased Beyotime S0168
T1 sequence (P35354 18-604): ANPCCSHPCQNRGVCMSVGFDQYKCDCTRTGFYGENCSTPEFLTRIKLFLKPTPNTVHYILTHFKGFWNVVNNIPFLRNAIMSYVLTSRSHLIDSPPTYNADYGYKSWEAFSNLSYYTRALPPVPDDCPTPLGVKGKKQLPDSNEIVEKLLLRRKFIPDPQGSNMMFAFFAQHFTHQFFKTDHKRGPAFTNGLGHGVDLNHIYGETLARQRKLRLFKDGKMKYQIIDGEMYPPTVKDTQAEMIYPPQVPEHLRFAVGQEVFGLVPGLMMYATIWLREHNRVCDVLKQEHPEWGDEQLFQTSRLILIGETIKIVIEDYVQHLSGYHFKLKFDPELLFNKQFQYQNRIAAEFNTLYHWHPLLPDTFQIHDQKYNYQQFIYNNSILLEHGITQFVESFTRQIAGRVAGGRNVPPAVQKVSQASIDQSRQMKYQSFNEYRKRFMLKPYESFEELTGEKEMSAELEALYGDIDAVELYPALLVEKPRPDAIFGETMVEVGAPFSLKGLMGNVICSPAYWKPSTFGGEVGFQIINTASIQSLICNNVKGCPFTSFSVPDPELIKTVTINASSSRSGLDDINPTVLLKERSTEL
Protocol: Anti-inflammatory activity was assessed by measuring COX-2 enzymatic inhibition on the basis of a described method by using the COX-2 Inhibitor Screening Kit (Beyotime, No. S0168). Celecoxib, a COX-2 inhibitor, was used as a positive control.

[1] = Online UPLC-PDA-MS-ABTS·+ scavenging (post-column derivatisation); settings: online profiling of DOF extract
Protocol: Online identification of antioxidant components of DOF extract was performed using a UPLC system (Milford, MA, USA) consisting of a Waters photodiode array detector and a Waters postcolumn derivatisation system supplying fresh ABTS solution (UPLC-PDA-QDa-ABTS). […] The detection wavelengths were set at 280 and 734 nm, and the injection volume of the sample was 10 μl.
To detect radical scavengers, the UPLC system was coupled with a Waters pump, which supplied freshly prepared ABTS·+ solution into a reaction coil (15 m, 0.25 mm ID) with a flow rate of 0.2 ml/min at 37° C. Negative peaks were recorded based on a decrease of absorbance at 729 nm after the reaction of individual compounds with the ABTS·+ radical. For preliminary identification of compounds, a Waters Acquity QDa mass detector in negative ionisation mode was connected in series to PDA with the following parameters: electrospray ion source; cone voltage, 15 V; atomiser, N2; and scanning range, 100-800 m/z.

[2] = FRAP total antioxidant capacity assay
Protocol: (§1) Fast colourimetric methods were slightly modified for the in vitro assessment of DPPH· scavenging, ABTS·+ decolourisation capacity, and total antioxidant capacity of FRAP. The stock solutions of derivatisation reagents were diluted as follows before measurement: DPPH was diluted with absolute ethanol until the absorbance was 0.8±0.05 at λ=517 nm. ABTS working solution was prepared with phosphate buffer (0.2 M, pH 7.4) to display absorbance of 0.8±0.05 at λ=729 nm, based on a previous study. The FRAP solution was prepared according to the instructions of the FRAP kit. Absorbances were measured using an automatic microplate reader (Molecular Group Ltd., USA), and all analyses were performed using 96-well plates. All measurements were performed in triplicate, and Trolox was used as a positive control.
For total antioxidant capacity, 180 μl of FRAP solution was mixed with 5 μl of sample solution, and the absorbance was measured after 5 min at […] with PBS as the negative control. FeSO4 solutions (0.15, 0.3, 0.6, 0.9, 1.2, and 1.5 mM) were used for the calibration curve. The FRAP value represents the corresponding concentration of FeSO4 solutions (mM FeSO4). The regression equation from the standard curve was used to calculate the equivalent concentration 1 (EC1) of each sample. EC1 is defined as the concentration of the test sample with an absorbance equivalent to that of 1.0 mmol/L of FeSO4 solution, determined by its calibration curve.

[3] = ABTS·+ decolourisation assay; settings: for IC50: read-out: IC50 against the ABTS radical
Protocol: as §1
For ABTS·+ decolourisation capacity, 100 μl of ABTS working solution was mixed with 200 μl of sample solution, and the absorbance was recorded after 10 min at 729 nm. Phosphate buffer (0.2 M, pH 7.4) was used as a negative control.
DPPH· and ABTS·+ radical scavenging activities of the tested sample were both calculated using the following formula: […]
where A control and A sample represent the absorbance of the control and test samples, respectively. The IC50 was calculated graphically from the dose-inhibition curves.

| SMILES | antioxidant ability by DPPH (in words) (DPPH· scavenging assay) | COX-2 inhibition (in words) (COX-2) | ABTS radical scavenging by size of negative peaks at 734 nm (in words) [1] | antioxidant ability by FRAP (in words) [2] | further results |
| --- | --- | --- | --- | --- | --- |
| O=c1cc(-c2ccc(O)c(O)c2)oc2c(C3OC(CO)C(O)C(O)C3O)c(O)c(C3OCC(O)C(O)C3O)c(O)c12 [Compound 11, Luteolin-6-C-β-D-xyloside-8-C-β-D-glucoside] | great antioxidant potency | great COX-2 inhibition; also recorded: outstanding COX-2 inhibitory effects | strongest ABTS radical scavengers | great antioxidant potency | FRAP EC1 (mM) ([2]; Table 11, mean ± SD, n = 3): 1,009.1 µM |
| O=c1cc(-c2ccc(O)cc2)oc2c([C@@H]3OC[C@H](O)[C@H](O)[C@H]3O)c(O)c([C@@H]3O[C@H](CO)[C@@H](O)[C@H](O)[C@H]3O)c(O)c12 [Compound 17, Schaftoside] | – | no inhibitory effects | – | – | – |
| O=C(/C=C/c1ccc(O)c(O)c1)O[C@@H]1O[C@H](CO)[C@@H](O)[C@H](O)[C@H]1O [Compound 5, 1-O-caffeoyl-β-D-glucoside] | – | – | strongest ABTS radical scavengers | – | – |
| O=c1cc(-c2ccc(O)c(O)c2)oc2c(C3OCC(O)C(O)C3O)c(O)c(C3OC(CO)C(O)C(O)C3O)c(O)c12 [Compound 15, Luteolin-6-C-β-D-glucoside-8-C-β-D-xyloside] | great antioxidant potency | great COX-2 inhibition; also recorded: outstanding COX-2 inhibitory effects | – | great antioxidant potency | FRAP EC1 (mM) ([2]; Table 11, mean ± SD, n = 3): 1,100.3 µM |
| O=c1cc(-c2ccc(O)cc2)oc2c([C@@H]3OC[C@@H](O)[C@H](O)[C@H]3O)c(O)c([C@@H]3OC[C@H](O)[C@H](O)[C@H]3O)c(O)c12 [Compound 26, Apigenin-6-C-α-L-arabinoside-8-C-β-D-xyloside] | – | no inhibitory effects | – | – | FRAP EC1 (mM) ([2]; Table 11, mean ± SD, n = 3): >5,000 µM |
| O=c1c(O[C@@H]2O[C@H](CO)[C@@H](O)[C@H](O)[C@H]2O)c(-c2ccc(O)cc2)oc2cc(O)cc(O)c12 [Compound 31, Astragalin] | – | no inhibitory effects | – | – | – |
| CC1OC(OCC2OC(Oc3c(-c4ccc(O)cc4)oc4cc(O)cc(O)c4c3=O)C(O)C(O)C2O)C(O)C(O)C1O (centres unmarked) [Compound 28, Kaempferol-3-O-rutinoside] | – | no inhibitory effects | – | – | – |
| O=c1cc(-c2ccc(O)cc2)oc2c([C@@H]3OC[C@@H](O)[C@H](O)[C@H]3O)c(O)c([C@@H]3O[C@H](CO)[C@@H](O)[C@H](O)[C@H]3O)c(O)c12 [Compound 19, Vicenin-3] | – | no inhibitory effects | – | – | – |
| O=c1c(OC2OC(CO)C(O)C(O)C2OC2OC(CO)C(O)C(O)C2O)c(-c2ccc(O)c(O)c2)oc2cc(O)cc(O)c12 (centres unmarked) [Compound 16, Quercetin-3-O-sophoroside] | great antioxidant potency | great COX-2 inhibition; also recorded: outstanding COX-2 inhibitory effects | strongest ABTS radical scavengers | great antioxidant potency | IC50 [3]: 6.63 ± 0.41 µM; FRAP EC1 ([2]; Table 11, mean ± SD, n = 3): 950 µM |
| O=c1cc(-c2ccc(O)c(O)c2)oc2cc(O)c(C3OC(CO)C(O)C(O)C3O)c(O)c12 [Compound 18, Luteolin-6-C-β-D-glucoside] | great antioxidant potency | great COX-2 inhibition; also recorded: outstanding COX-2 inhibitory effects | – | great antioxidant potency | FRAP EC1 ([2]; Table 11, mean ± SD, n = 3): 507 µM |
| O=c1cc(-c2ccc(O)cc2)oc2c([C@@H]3O[C@H](CO)[C@@H](O)[C@H](O)[C@H]3O)c(O)c([C@@H]3O[C@H](CO)[C@@H](O)[C@H](O)[C@H]3O)c(O)c12 [Compound 10, Vicenin-2] | – | no inhibitory effects | strongest ABTS radical scavengers | – | – |
| O=c1cc(-c2ccc(O)cc2)oc2c([C@@H]3O[C@H](CO)[C@@H](O)[C@H](O)[C@H]3O)c(O)c([C@@H]3OC[C@@H](O)[C@H](O)[C@H]3O)c(O)c12 [Compound 14, Vicenin-1] | – | – | – | – | IC50 [3]: 96.4 ± 2.11 µM |
| O=c1c(O[C@@H]2O[C@H](CO)[C@@H](O)[C@H](O)[C@H]2O)c(-c2ccc(O)c(O)c2)oc2cc(O)cc(O)c12 [Compound 25, Isoquercitrin] | great antioxidant potency | great COX-2 inhibition; also recorded: outstanding COX-2 inhibitory effects | strongest ABTS radical scavengers | great antioxidant potency | antioxidant ability by DPPH (in words) (DPPH· scavenging assay; listed as isoquercitrin): selective and significant antioxidant abilities; COX-2 inhibition (in words) (COX-2; listed as isoquercitrin): potent COX-2 inhibitory capacity; FRAP EC1 ([2]; Table 11, mean ± SD, n = 3): 520 µM; antioxidant ability by FRAP (in words) ([2]; listed as isoquercitrin): selective and significant antioxidant abilities |
| COc1cc(-c2oc3cc(O)cc(O)c3c(=O)c2O[C@@H]2O[C@H](CO)[C@@H](O)[C@H](O)[C@H]2O)ccc1O [Compound 32, Isorhamnetin-3-O-glucoside] | – | – | – | – | IC50 (DPPH· scavenging assay): 2370 µM; IC50 (COX-2): 535 ± 150 µM; EC1 of FRAP [2]: 2,757.3±103.8 μM |
| Cc1c(C)c2c(c(C)c1O)CCC(C)(C(=O)O)O2 (centres unmarked) [Trolox, 6-hydroxyl-2,5,7,8-tetra-methylchroman-2-carboxylic acid, reference compound] | – | – | – | – | ABTS IC50 ([3]; text b269): 27.68 ± 1.04 µg/mL; FRAP EC1 ([2]; Table 11, mean ± SD, n = 3): 560 µM; FRAP EC1 ([2]; concentration equivalent to 1.0 mmol/L FeSO4, text b269): 55.35 ± 5.22 µg/mL |
| O=C(O)CC(=O)OCC1OC(Oc2c(-c3ccc(O)c(O)c3)oc3cc(O)cc(O)c3c2=O)C(O)C(O)C1O (centres unmarked) [Compound 27, Quercetin 3-O-(6″-malonyl-glucoside)] | great antioxidant potency | great COX-2 inhibition; also recorded: outstanding COX-2 inhibitory effects | strongest ABTS radical scavengers | great antioxidant potency | FRAP EC1 ([2]; Table 11, mean ± SD, n = 3): 827 µM |
| O=c1cc(-c2ccc(O)cc2)oc2c([C@H]3OC[C@H](O)[C@H](O)[C@H]3O)c(O)c([C@@H]3O[C@H](CO)[C@@H](O)[C@H](O)[C@H]3O)c(O)c12 [Compound 21, Neoschaftoside] | great antioxidant potency | – | – | great antioxidant potency | – |
